Experimental data taken from patent publication US20130309306A1, “INTRAPULMONARY BENZODIAZEPINE FOR THE TREATMENT AND PREVENTION OF SEIZURES” (priority 2010, published 2013).

Columns and labels:
[1] = tested on: kainic acid induced seizure; assay: Kainic acid seizure threshold test in mice (intravenous infusion); assay type: in vivo
Method: (§1) Male NIH Swiss mice (22-30 g) were kept in a vivarium under controlled environmental conditions (temperature, 22-26° C.; humidity, 40-50%) with an artificial 12-h light/dark cycle. Wood chips were used in all cages. Experiments were performed during the light phase of the light/dark cycle after a minimum 30-min period of acclimation to the experimental room. The animal facilities were fully accredited by the Association for Assessment and Accreditation of Laboratory Animal Care. All studies were performed under protocols approved by the Animal Care and Use Committee of the University of California, Davis in strict compliance with the Guide for the Care and Use of Laboratory Animals of the National Research Council (National Academy Press, Washington, D.C.).
Intratracheal administration of midazolam was carried out as described by Oka et al. (2006). In brief, mice were briefly anesthetized using isoflurane anesthesia (4% isoflurane). The animals were immediately placed on a surgical board held at a 60° angle. The animal's mouth was kept open by hanging the upper incisors on a hook to facilitate detection of the epiglottis. […]
Results are expressed as mean±S.E.M.; the significance of the difference in the responses of treatment groups with respect to control is based on one-way analysis of variance (ANOVA) followed by specific post-hoc comparisons using Tukey's test. […]

PTZ-induced seizures = assay: PTZ seizure threshold test, tonic extension endpoint, Example 2; assay type: in vivo, mice
Method: as §1, with “NIH” for “Male NIH”, “D.C.; on the internet at nap.edu/readingroom/books/labrats/).” for “D.C.).”
Midazolam was administered as a commercially available injectable solution (midazolam hydrochloride, 10 mg/10 ml; APP Pharmaceuticals, Schaumburg, Ill., USA) containing sodium chloride (0.8% w/v), disodium edetate (0.01% w/v), benzyl alcohol as preservative (1% v/v) with HCl to adjust the pH 3-3.6. Pentylenetetrazol (PTZ) (Sigma-Aldrich, St. Louis, Mo., USA) was dissolved in 0.9% w/v saline. The remaining test substances were all obtained from Tocris Bioscience (Ellisville, Mo., USA) except for clonazepam, which was from Sigma-Aldrich. Finasteride was dissolved in 25% hydroxypropyl-β-cyclodextrin (Trappsol; Cyclodextrin Technologies Development, High Springs, Fla., U.S.A.). Metyrapone was dissolved in double distilled water and PK 11195 and clonazepam were suspended in 1% Tween 80 and adjusted to volume with saline.
PTZ seizure threshold was determined according to a protocol used previously in our laboratory (Dhir et al., 2011). Intravenous PTZ elicits a sequence of seizure signs beginning with twitch and progressing to clonus and tonic limb extension. In the present study, tonic extension was used as the endpoint. […] It is noteworthy that this is the endpoint originally used in studies characterizing the actions of midazolam against PTZ seizures in mice (Pieri, 1983 Br J Clin Pharmacol 16 Suppl 1: 17S-27S). A 27 gauge-¾ inch “butterfly” needle was inserted into the lateral tail vein and the needle was secured with a narrow piece of adhesive tape. The animal was placed inside a 2 L glass beaker with free aeration from the top and allowed to move freely. The needle was connected by polyethylene tubing to a Beckton, Dickinson 1 ml syringe mounted on an infusion pump (Model ‘11’ plus syringe pump; Harvard Apparatus, Holliston, Mass.). PTZ solution (10 mg/ml) was infused at a constant rate of 0.5 ml/min. The infusion was stopped at 3 min or at the onset of tonic extension, whichever occurred first. The threshold value (mg/kg) for tonic extension was determined according to the formula: (infusion duration [sec]×infusion rate [ml/min]×PTZ concentration [mg/ml]×1000)/(60 [sec]×weight of mouse [g]).
In an initial experiment, the dose-response relationship for midazolam elevation of seizure threshold was assessed at doses of 100 μg/kg to 5 mg/kg (15 min pretreatment time). […] PK 11195 was used at a dose (15 mg/kg) as in the study of Ugale et al. (2004 Brain Res. 2004 Oct. 8; 1023(1):102-11). Clonazepam was administered at a dose of 100 μg/kg (Akula et al., 2009). The volume of all intraperitoneal injections was 10 ml/kg.
Results are expressed as mean±S.E.M.; the significance of the difference in the responses of treatment groups with respect to control is based on one-way analysis of variance (ANOVA) followed by specific post-hoc comparisons using Tukey's test. Differences are considered statistically significant when the probability of type I error was less than 0.05.

Compound: Cc1ncc2n1-c1ccc(Cl)cc1C(c1ccccc1F)=NC2 [Midazolam, midazolam]
- thresholds for clonus and tonic extensor phases, kainic acid infusion ([1]; intraperitoneal 2000 μg/kg, pretreatment 10 min (FIG. 4A)): significant elevation
- seizure thresholds, kainic acid infusion ([1]; intratracheal 100 μg/kg, pretreatment 10 min (FIG. 4B)): effective
- PTZ threshold for tonic extension vs vehicle (PTZ-induced seizures; intraperitoneal 500 to 5000 μg/kg (significant), 15 min before PTZ infusion (FIG. 7)): dose-dependent elevation in threshold
- increase in threshold for tonic extension (vs vehicle only control) (PTZ-induced seizures; midazolam 500 μg/kg i.p., 15 min before i.v. PTZ infusion, in the absence of finasteride): 2.3 fold
- PTZ seizure threshold vs vehicle (PTZ-induced seizures; midazolam 100 or 200 μg/kg intratracheal, 10 min before PTZ, in the absence of flumazenil (FIG. 12)): significant increase in the seizure threshold
